Measured values reported in article PMC11215747, “Improved Rigidin-Inspired Antiproliferative Agents with Modifications on the 7-Deazahypoxanthine C7/C8 Ring Systems” (Journal of Medicinal Chemistry, 2024).
Entries after “also recorded” stand apart in the source; their conditions may differ. Like-named read-outs stand apart in the source and are kept apart here. Blank lines part the entries; values can stand above or below the molecule they belong to.

Key:
HeLa cells [1] = test: Microtubule organization by immunolabeling in HeLa cells; format: cell-based, Human; conditions: 4 h; for effect on interphase microtubules / effect on spindle morphology: at GI50 concentrations
Method: To examine microtubule morphology in rigidin-treated cells, HeLa cells were incubated for 4 h in the presence or absence of test compound before being fixed with 3.7% formaldehyde in PBS and permeabilized with 0.1% Triton X-100 in PBS. After blocking the cells with 3% bovine serum albumin in PBS, they were probed with antibodies for the centromere marker CENP-B (Abcam, code ab25734) and tubulin (Sigma, code sc-53029), which were detected with Alexa Fluor-labeled secondary antibodies (Thermofisher). Hoechst 33342 (1 mg/mL, Thermofisher H3570) was used to stain DNA. Samples were mounted on glass slides and imaged using Andor Dragonfly 505 spinning disk confocal system mounted on an Olympus IX83 inverted microscope. Figures were created with Adobe Photoshop CS5. All drugs were resuspended in DMSO, and 0.1% DMSO served as a carrier control.

PNT1A cells = test: MTT cytotoxicity assay against normal epithelial cell line PNT1A; format: cell-based; conditions: molecular formula strings CSV, read-out: PNT1A GI50
Method: (§1) The 3-(4,5-dimethylthiazol-2-yl)-2,5-diphenyltetrazolium bromide (MTT) assay was employed to evaluate the antiproliferative activities of the synthesized 7-deazahypoxathine analogues. The HeLa, PNT1A, or PANC-1 cell lines were assessed by trypsinizing and seeding 4 × 10^3 cells per well into 96-well plates. Synthesized compounds were dissolved in DMSO at a concentration of either 50 mM or 100 mM before cell treatment. Cells were grown for 24 h and then treated with compounds at concentrations ranging from 0.04 to 100 μM and incubated for 48 h in 200 μL media. Twenty microliters of MTT reagent in serum-free medium (5 mg/mL) was added to each well and incubated further for 2 h. Media was removed and the resulting formazan crystals were resolubilized in 200 μL of DMSO. A Thermomax Molecular Device plate reader was utilized to measure A490. Experiments were performed in quadruplicate and repeated at least twice for each compound. The control comprised of cells treated with 0.1% DMSO. One micromolar phenyl arsine oxide (PAO) was utilized as a positive killing control.

HeLa cells [2] = test: Annexin V apoptosis assay and cell-fate tracking in HeLa cells; format: cell-based, Human; conditions: 20 nM; for apoptosis at the 30 hour time point (Annexin V fluorescence): 6 biological replicates, one-way ANOVA amongst compounds; for total numbers of cells that died following mitotic arrest: single-cell tracking, >130 cells per treatment
Method: To directly assess apoptosis in living cells, HeLa cells were plated (six biological replicates per condition) in 96-well Imagelock Plates (Sartorius BA-04855) at a density of 1,562.5 cells/cm^2. The following day, cells were placed in media containing IncuCyte Annexin V Dye (Sartorius 4642) supplemented with either 0.1% Dimethyl sulfoxide or test compounds (20 nM), and plates were placed in a Sartorius Incucyte S3 live cell imaging system. Plates were scanned hourly, with phase contrast and green fluorescence images were acquired at three positions per well. Raw fluorescence data was processed using Incucyte software, and Prism Graphpad was used for data visualization and statistical analysis. To track individual cell fates, combined phase contrast/fluorescence time lapse sequences were exported from multiple wells per condition, and cell fates individual cells were scored and tabulated using Graphpad Prism software.

HeLa cells [3] = test: MTT antiproliferative assay against HeLa cells; format: cell-based, Human
Method: as §1, with “control. […]” for “control.”

[4] = Aqueous solubility by laser nephelometry; format: physicochemical; conditions: initial analysis
tubulin = target: T1, tubulin (Sus scrofa, UniProt P02554); test: Fluorescence-based tubulin polymerization assay; format: biochemical; conditions: relative to 1% DMSO control
T1 construct: purchased Cytoskeleton, Inc
T1 sequence (P02554 whole entry): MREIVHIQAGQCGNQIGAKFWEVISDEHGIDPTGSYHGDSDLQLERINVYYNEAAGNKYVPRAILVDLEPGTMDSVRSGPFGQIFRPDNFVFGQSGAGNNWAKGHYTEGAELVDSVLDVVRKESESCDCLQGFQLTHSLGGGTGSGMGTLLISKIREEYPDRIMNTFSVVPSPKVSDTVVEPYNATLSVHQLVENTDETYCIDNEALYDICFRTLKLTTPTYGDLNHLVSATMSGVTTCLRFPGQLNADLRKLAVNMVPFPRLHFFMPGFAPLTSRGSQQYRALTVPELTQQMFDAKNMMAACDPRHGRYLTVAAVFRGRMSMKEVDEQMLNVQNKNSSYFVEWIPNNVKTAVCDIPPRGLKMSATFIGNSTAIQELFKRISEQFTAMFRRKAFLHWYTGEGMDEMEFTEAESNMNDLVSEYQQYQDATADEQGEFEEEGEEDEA
T1 sequence (P02550 whole entry partner): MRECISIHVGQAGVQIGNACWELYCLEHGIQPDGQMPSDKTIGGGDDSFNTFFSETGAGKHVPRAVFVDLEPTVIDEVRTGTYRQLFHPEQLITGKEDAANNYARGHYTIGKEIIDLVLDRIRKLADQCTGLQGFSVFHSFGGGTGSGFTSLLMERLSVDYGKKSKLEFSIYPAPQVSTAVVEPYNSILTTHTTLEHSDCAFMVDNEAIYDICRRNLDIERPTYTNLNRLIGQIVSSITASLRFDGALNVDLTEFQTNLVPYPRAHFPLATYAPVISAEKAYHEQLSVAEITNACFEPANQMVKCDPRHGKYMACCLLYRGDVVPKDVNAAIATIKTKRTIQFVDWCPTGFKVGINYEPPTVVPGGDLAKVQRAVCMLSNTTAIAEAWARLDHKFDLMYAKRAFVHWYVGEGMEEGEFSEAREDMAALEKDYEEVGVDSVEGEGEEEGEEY
Method: The fluorescence-based tubulin polymerization assay from Cytoskeleton, Inc. was used. […] The tubulin reaction mixture was prepared per manufacturer’s instructions, kept on ice, and used within ∼15 min of preparation. A Biotek Synergy H4 hybrid multimode plate reader was preheated to 37 °C. Prior to starting the assay, a half-area black 96-well plate was preheated within the plate reader. A volume of 5 μL of each of the tested samples was pipetted into separate wells of the plate and incubated in the warm plate reader for 1 min.

[5] = set-up: method as in PMID 23927793; conditions: cell line not given; cited from earlier work
[6] = Stability of compound in solution; format: physicochemical; conditions: in solution / over time
[7] = Homo sapiens, MTT, 48 h, average and SD from two independent determinations, each in quadruplicate (footnote c), read-out: GI50 (μM) ± SD
[8] = 25 μM, averaged from two experiments
[9] = Homo sapiens, MTT assay, 48 h treatment, relative to DMSO control, two independent determinations, each in quadruplicate, read-out: GI50 (μM)± SD

Molecule: 5-(3,5-Difluorophenyl)-6-[4-(2-ethoxyethoxy)benzoyl]-2-(pent-4-yn-1-yl)-1,7-dihydro-4H-pyrrolo[2,3-d]pyrimidin-4-one [Compound 60]
- effect on interphase microtubules (HeLa cells [1]): no striking effects on interphase microtubules
- effect on spindle morphology (HeLa cells [1]): remarkable effects on the spindle morphology
- GI50 (PNT1A cells): 48 ± 10 nM
- apoptosis at the 30 hour time point (Annexin V fluorescence) (HeLa cells [2]): no significant differences
- total numbers of cells that died following mitotic arrest (HeLa cells [2]): 85%

Molecule: O=C(c1ccc(OCc2ccccc2)cc1)c1[nH]c2[nH]cnc(=O)c2c1-c1ccccc1 [Compound 32]
- GI50 [5]: 45 ± 4 nM

Molecule: C#CCCCc1nc(=O)c2c(-c3ccccc3C)c(C(=O)c3ccccc3)[nH]c2[nH]1 [Compound 13, 6-Benzoyl-2-(pent-4-yn-1-yl)-5-(o-tolyl)-1,7-dihydro-4H-pyrrolo[2,3-d]pyrimidin-4-one]
- GI50 (HeLa cells [3]; [9]): 0.142 ± 0.044 µM

Molecule: C#CCCCc1nc(=O)c2c(-c3ccc(N4CCOCC4)cc3)c(C(=O)c3ccccc3)[nH]c2[nH]1 [Compound 15, 6-Benzoyl-5-(4-morpholinophenyl)-2-(pent-4-yn-1-yl)-1,7-dihydro-4H-pyrrolo[2,3-d]pyrimidin-4-one]
- decrease in antiproliferative activity compared to lead compound 1 (HeLa cells [3]): 500 fold
- GI50 (HeLa cells [3]; [9]): 11.3 ± 0.65 µM

Molecule: C#CCCCc1nc(=O)c2c(-c3ccccc3)c(C(=O)c3ccccc3C)[nH]c2[nH]1 [Compound 21, 6-(2-Methylbenzoyl)-2-(pent-4-yn-1-yl)-5-phenyl-1,7-dihydro-4H-pyrrolo[2,3-d]pyrimidin-4-one]
- GI50 (HeLa cells [3]; [9]): 0.062 ± 0.005 µM
- GI50 (PNT1A cells; Homo sapiens, PNT1A): 53 ± 12 nM

Molecule: C#CCCCc1nc(=O)c2c(-c3c(C)cccc3C)c(C(=O)c3ccccc3)[nH]c2[nH]1 [Compound 14, 6-Benzoyl-5-(2,6-dimethylphenyl)-2-(pent-4-yn-1-yl)-1,7-dihydro-4H-pyrrolo[2,3-d]pyrimidin-4-one]
- GI50 (HeLa cells [3]; [9]): 2.3 ± 0.09 µM

Molecule: 6-[4-(2-Ethoxyethoxy)benzoyl]-5-(3-fluorophenyl)-2-(pent-4-yn-1-yl)-1,7-dihydro-4H-pyrrolo[2,3-d]pyrimidin-4-one [Compound 59]
- effect on interphase microtubules (HeLa cells [1]): no striking effects on interphase microtubules
- effect on spindle morphology (HeLa cells [1]): remarkable effects on the spindle morphology
- GI50 (HeLa cells [3]; MTT, 48 h, average of eight repeats determined over 5 weeks (footnote d), read-out: GI50 (μM) ± SD): 0.016 ± 0.004 µM
- GI50 (PNT1A cells): 41 ± 11 nM
- effect on in vitro tubulin polymerization (tubulin; [8]): potent inhibition of microtubule assembly; also recorded: completely suppress tubulin polymerization
- apoptosis at the 30 hour time point (Annexin V fluorescence) (HeLa cells [2]): no significant differences
- total numbers of cells that died following mitotic arrest (HeLa cells [2]): 87%

Molecule: 6-[4-(2-Ethoxyethoxy)benzoyl]-5-(6-fluoropyridin-2-yl)-2-(pent-4-yn-1-yl)-1,7-dihydro-4H-pyrrolo[2,3-d]pyrimidin-4-one [Compound 61]
- GI50 (HeLa cells [3]; tested once, compound degraded in solution, read-out: GI50): 0.0224 µM
- stability [6]: unstable over time; also recorded: clear degradation of the compound in solution

Further lines, with some results ahead:

- GI50 (HeLa cells [3]; [7]): 0.444 ± 0.03 µM
- aqueous solubility relative to the other compounds [4]: significantly more soluble
Molecule: C#CCCCc1nc(=O)c2c(-c3ccccc3)c(C(=O)c3ccc(OCCN4CCOCC4)cc3)[nH]c2[nH]1 [Compound 34, 6-[4-(2-Morpholinoethoxy)benzoyl]-2-(pent-4-yn-1-yl)-5-phenyl-1,7-dihydro-4H-pyrrolo[2,3-d]pyrimidin-4-one]
- effect on interphase microtubules (HeLa cells [1]): no striking effects on interphase microtubules
- effect on spindle morphology (HeLa cells [1]): remarkable effects on the spindle morphology
- syntelic chromosome attachments (HeLa cells [1]; lower concentrations (GI25)): still prevalent
- decrease in antiproliferative activity compared to lead compound 1 (HeLa cells [3]): ~20 fold
- effect on in vitro tubulin polymerization (tubulin; [8]): potent inhibition of microtubule assembly; also recorded: completely suppress tubulin polymerization

- effect on in vitro tubulin polymerization (tubulin; 3 μM): promotes microtubule formation
Molecule: CC(=O)O[C@H]1C(=O)[C@@]2(C)[C@H]([C@H](OC(=O)c3ccccc3)[C@]3(O)C[C@H](OC(=O)[C@H](O)[C@@H](NC(=O)c4ccccc4)c4ccccc4)C(C)=C1C3(C)C)[C@]1(OC(C)=O)CO[C@@H]1C[C@@H]2O [Paclitaxel, paclitaxel, reference compound]
- effect on in vitro tubulin polymerization (tubulin; 3 μM, listed as paclitaxel): potent enhancement of microtubule formation

- GI50 (HeLa cells [3]; [7]): 2.87 ± 0.103 µM
- aqueous solubility relative to the other compounds [4]: significantly more soluble
Molecule: C#CCCCc1nc(=O)c2c(-c3ccccc3)c(C(=O)c3ccc(OCCN4CCCC4)cc3)[nH]c2[nH]1 [Compound 35, 2-(Pent-4-yn-1-yl)-5-phenyl-6-{4-[2-(pyrrolidin-1-yl)ethoxy]benzoyl}-1,7-dihydro-4H-pyrrolo[2,3-d]pyrimidin-4-one]
- decrease in antiproliferative activity compared to lead compound 1 (HeLa cells [3]): ~150 fold

- GI50 (HeLa cells [3]; [9]): 0.043 ± 0.002 µM
Molecule: CC#CCCc1nc(=O)c2c(-c3ccccc3)c(C(=O)c3ccc(N4CCOCC4)cc3)[nH]c2[nH]1 [Compound 30, 6-(4-Morpholinobenzoyl)-2-(pent-3-yn-1-yl)-5-phenyl-1,7-dihydro-4H-pyrrolo[2,3-d]pyrimidin-4-one]
- reduction in activity following isomerization to the internal alkyne (HeLa cells [3]; terminal versus internal alkyne analogues (1, 27 vs 31, 30)): 2 fold

- GI50 (HeLa cells [3]; [9]): 0.025 ± 0.002 µM
Molecule: C#CCCCc1nc(=O)c2c(-c3ccccc3)c(C(=O)c3ccc(N4CCOCC4)cc3)[nH]c2[nH]1 [Compound 27, 6-(4-Morpholinobenzoyl)-2-(pent-4-yn-1-yl)-5-phenyl-1,7-dihydro-4H-pyrrolo[2,3-d]pyrimidin-4-one]
- GI50 (PNT1A cells; Homo sapiens, PNT1A): 49 ± 20 nM
